Reference: patent publication US20240400586A1, “HETEROARYL DERIVATIVE PARP INHIBITOR AND USE THEREOF” (HAISCO PHARMACEUTICAL GROUP CO., LTD., priority 2021, published 2024)

Assays:
[1] = system: breast tumor cells MDA-MB-436; test: MDA-MB-436 cell activity test (CellTiter-Glo, 7 days); assay type: cell-based; settings: Homo sapiens, MDA-MB-436, 168 h, 7 days incubation; for inhibition at 10 µM: read-out: MDA-MB-436 Max inh. % 10 μM; for IC50: read-out: MDA-MB-436 cell inhibitory activity IC50
Method: Breast tumor cells MDA-MB-436 were purchased from ATCC, the culture medium was Leibovitz's L-15+10% FBS, and the cells were cultured in a CO2-free incubator at 37° C. On day 1, the cells in the exponential growth phase were collected, and the cell suspension was adjusted to 4000 cells/135 μL with the culture medium. 135 μL of the cell suspension was added to each well of a 96-well cell culture plate and incubated overnight. On day 2, compounds at different concentrations were added, and the plate was placed in the incubator and incubated for 7 days. After the incubation was completed, according to operation instructions for a CellTiter-Glo kit (Promega, G7573), 75 μL of CTG solution, which was already pre-melted and equilibrated to room temperature, was added to each well, and the mixture was uniformly mixed for 2 min using a microplate shaker. The plate was placed at room temperature for 10 min, and then […] were measured using an Envision2104 plate reader (PerkinElmer). The inhibition rate was calculated using formula (1), where RLUcompound was the readout of the drug treated group, RLUcontrol was the average value of the vehicle control group, and RLUblank was the average value of the cell-free well. The IC50 value was calculated using GraphPad Prism software.

[2] = target: PARP-1 enzyme (Homo sapiens (Human), UniProt P09874); test: PARP1 enzyme activity test (BPS Bioscience chemiluminescence kit); assay type: biochemical
From the text: Inhibition %=(1−(RLUsample−RLUmin)/(RLUmax−RLUmin))×100% (formula 1)

Sequence of PARP-1 enzyme (P09874 whole entry): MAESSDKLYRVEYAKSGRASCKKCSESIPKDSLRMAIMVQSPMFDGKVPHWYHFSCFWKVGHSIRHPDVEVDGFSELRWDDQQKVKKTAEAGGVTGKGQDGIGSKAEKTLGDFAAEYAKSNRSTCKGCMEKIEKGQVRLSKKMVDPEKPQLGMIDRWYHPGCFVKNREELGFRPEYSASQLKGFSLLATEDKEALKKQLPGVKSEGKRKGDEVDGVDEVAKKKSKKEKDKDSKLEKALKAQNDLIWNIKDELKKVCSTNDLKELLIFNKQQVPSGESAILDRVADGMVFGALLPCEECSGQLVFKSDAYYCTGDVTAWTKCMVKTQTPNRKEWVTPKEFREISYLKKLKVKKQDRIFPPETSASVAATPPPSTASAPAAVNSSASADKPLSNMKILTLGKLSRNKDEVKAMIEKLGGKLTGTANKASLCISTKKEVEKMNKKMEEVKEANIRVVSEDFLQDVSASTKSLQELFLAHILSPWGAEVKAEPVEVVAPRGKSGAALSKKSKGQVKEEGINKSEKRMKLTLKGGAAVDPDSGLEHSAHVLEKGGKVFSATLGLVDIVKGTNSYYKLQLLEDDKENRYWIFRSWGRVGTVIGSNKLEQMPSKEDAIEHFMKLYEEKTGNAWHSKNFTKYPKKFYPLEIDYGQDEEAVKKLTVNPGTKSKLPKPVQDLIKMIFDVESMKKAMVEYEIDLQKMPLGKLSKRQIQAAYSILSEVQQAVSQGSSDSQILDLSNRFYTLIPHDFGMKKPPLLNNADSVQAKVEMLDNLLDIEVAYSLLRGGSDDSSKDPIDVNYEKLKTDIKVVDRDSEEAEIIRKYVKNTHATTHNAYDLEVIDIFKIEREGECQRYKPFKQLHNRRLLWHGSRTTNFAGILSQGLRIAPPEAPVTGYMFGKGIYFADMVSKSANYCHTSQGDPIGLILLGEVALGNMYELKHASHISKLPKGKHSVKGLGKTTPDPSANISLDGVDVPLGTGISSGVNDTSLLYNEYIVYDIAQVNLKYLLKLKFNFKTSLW

Structure (SMILES)	IC50 [1] [nM]	IC50 [2] [nM]	inhibition at 10 µM [1] [%]
CCc1cc2ncc(CN3CCN(c4cnc(C(=O)NC)c(F)c4)CC3)cc2[nH]c1=O [Compound 6, 5-(4-((7-ethyl-6-oxo-5,6-dihydro-1,5-naphthyridin-3-yl)methyl)piperazin-1-yl)-3-fluoro-N-methylpicolinamide]	10	0.56	85.7
CCc1cc2ncc(CN3CCN(c4ccc(C(=O)N[C@@H]5C[C@@H]5F)nc4)CC3)cc2[nH]c1=O [Compound 11, 5-(4-((7-ethyl-6-oxo-5,6-dihydro-1,5-naphthyridin-3-yl)methyl)piperazin-1-yl)-N-((1R,2S)-2-fluorocyclopropyl)picolinamide]	6	0.54	85.2
CCc1cc2ncc(CN3CCN(c4ccc(C(=O)Nc5cnn(C)c5)nc4)CC3)cc2[nH]c1=O [Compound 23, 5-(4-((7-ethyl-6-oxo-5,6-dihydro-1,5-naphthyridin-3-yl)methyl)piperazin-1-yl)-N-(1-methyl-1H-pyrazol-4-yl)picolinamide]	1.4	0.67	84.2
CCc1cc2ncc(CN3CCN(c4ccc(C(=O)NCCOC)nc4)CC3)cc2[nH]c1=O [Compound 24, 5-(4-((7-ethyl-6-oxo-5,6-dihydro-1,5-naphthyridin-3-yl)methyl)piperazin-1-yl)-N-(2-methoxyethyl)picolinamide]	9	0.73	82.3
CCc1cc2ncc(CN3CCN(c4ccc(C(=O)NC5CC6(CCC6)C5)nc4)CC3)cc2[nH]c1=O [Compound 38, 5-(4-((7-ethyl-6-oxo-5,6-dihydro-1,5-naphthyridin-3-yl)methyl)piperazin-1-yl)-N-(spiro[3.3]heptan-2-yl)picolinamide]	17.6	0.7	98.8
CCc1cc2ncc(CN3CCN(c4ccc(C(=O)N[C@H]5C[C@H]5F)nc4)CC3)cc2[nH]c1=O [Compound 41, 5-(4-((7-ethyl-6-oxo-5,6-dihydro-1,5-naphthyridin-3-yl)methyl)piperazin-1-yl)-N-((1S,2R)-2-fluorocyclopropyl)picolinamide]	2.3	0.84	92.1
CCc1cc2ncc(CN3CCN(c4ccc(-c5nnc(C)[nH]5)nc4)CC3)cc2[nH]c1=O [Compound 42, 3-ethyl-7-((4-(6-(5-methyl-4H-1,2,4-triazol-3-yl)pyridin-3-yl)piperazin-1-yl)methyl)-1,5-naphthyridin-2 (1H)-one]	24.1	0.67	84.1
CCc1cn2cc(N3CCN(Cc4cnc5cc(CC)c(=O)[nH]c5c4)CC3)ncc2n1 [Compound 44, 3-ethyl-7-((4-(2-ethylimidazo[1,2-a]pyrazin-6-yl)piperazin-1-yl)methyl)-1,5-naphthyridin-2 (1H)-one]		0.92	
CCc1cc2ncc(CN3CCN(c4cn5cc(C(F)F)nc5cn4)CC3)cc2[nH]c1=O [Compound 45]		0.73	
CCc1cc2ncc(CN3CCN(c4ccc(C(=O)NC5CN(c6ccccc6)C5)nc4)CC3)cc2[nH]c1=O [Compound 46, 5-(4-((7-ethyl-6-oxo-5,6-dihydro-1,5-naphthyridin-3-yl)methyl)piperazin-1-yl)-N-(1-phenylazetidin-3-yl)picolinamide]		0.56	
CCc1cc2ncc(CN3CCN(c4ccc(C(=O)Nc5ccn(C)n5)nc4)CC3)cc2[nH]c1=O [Compound 48, 5-(4-((7-ethyl-6-oxo-5,6-dihydro-1,5-naphthyridin-3-yl)methyl)piperazin-1-yl)-N-(1-methyl-1H-pyrazol-3-yl)picolinamide]		0.35	

The next lines start with results.

IC50 [1] [nM]	IC50 [2] [nM]	Structure (SMILES)	inhibition at 10 µM [1] [%]
3	0.69	CCc1cc2ncc(CN3CCN(c4ccc(NC(=O)[C@@H]5CC5(F)F)nc4)CC3)cc2[nH]c1=O (single isomer, unassigned) [Compound 50]	92.9
8.5	0.66	CCc1cc2ncc(CN3CCN(c4ccc(NC(=O)[C@H]5CC5(F)F)nc4)CC3)cc2[nH]c1=O (single isomer, unassigned) [Compound 51]	95.6
6	0.73	CCc1cc2ncc(CN3CCN(c4ccc(NC(=O)C5CC5)nc4)CC3)cc2[nH]c1=O [Compound 9, N-(5-(4-((7-ethyl-6-oxo-5,6-dihydro-1,5-naphthyridin-3-yl)methyl)piperazin-1-yl)pyridin-2-yl)cyclopropanecarboxamide]	86.2
17	0.56	CCc1cc2ncc(CN3CCN(c4ccc(C(=O)NC5CCC5)nc4)CC3)cc2[nH]c1=O [Compound 10, N-cyclobutyl-5-(4-((7-ethyl-6-oxo-5,6-dihydro-1,5-naphthyridin-3-yl)methyl)piperazin-1-yl)picolinamide]	94.2
12	0.51	CCc1cc2ncc(CN3CCN(c4ccc(C(=O)NC5CNC5)nc4)CC3)cc2[nH]c1=O [Compound 22, N-(azetidin-3-yl)-5-(4-((7-ethyl-6-oxo-5,6-dihydro-1,5-naphthyridin-3-yl)methyl)piperazin-1-yl)picolinamide]	89.4
16	0.88	CCc1cc2ncc(CN3CCN(c4ccc(C(=O)NC5CC(F)(F)C5)nc4)CC3)cc2[nH]c1=O [Compound 25, N-(3,3-difluorocyclobutyl)-5-(4-((7-ethyl-6-oxo-5,6-dihydro-1,5-naphthyridin-3-yl)methyl)piperazin-1-yl)picolinamide]	99
18	0.48	CCc1cc2ncc(CN3CCN(c4ccc(NC(=O)C5CC(F)(F)C5)nc4)CC3)cc2[nH]c1=O [Compound 26, N-(5-(4-((7-ethyl-6-oxo-5,6-dihydro-1,5-naphthyridin-3-yl)methyl)piperazin-1-yl)pyridin-2-yl)-3,3-difluorocyclobutane-1-carboxamide]	86.3
3.1	0.74	CCc1cc2ncc(CN3CCN(c4ccc(NC(=O)c5cnn(C)c5)nc4)CC3)cc2[nH]c1=O [Compound 33, N-(5-(4-((7-ethyl-6-oxo-5,6-dihydro-1,5-naphthyridin-3-yl)methyl)piperazin-1-yl)pyridin-2-yl)-1-methyl-1H-pyrazole-4-carboxamide]	90
18.9	0.96	CCc1cc2ncc(CN3CCN(c4ccc(NC(=O)OC5CC5)nc4)CC3)cc2[nH]c1=O [Compound 37, Cyclopropyl(5-(4-((7-ethyl-6-oxo-5,6-dihydro-1,5-naphthyridin-3-yl)methyl)piperazin-1-yl)pyridin-2-yl)carbamate]	93.7
1.2	0.77	CCc1cc2ncc(CN3CCN(c4ccc(C(=O)NC56CC(C5)C6)nc4)CC3)cc2[nH]c1=O [Compound 39, N-(bicyclo[1.1.1]pentan-1-yl)-5-(4-((7-ethyl-6-oxo-5,6-dihydro-1,5-naphthyridin-3-yl)methyl)piperazin-1-yl)picolinamide]	99.1
5.6	0.61	CCc1cc2ncc(CN3CCN(c4ccc(C(=O)NCC5CC5)nc4)CC3)cc2[nH]c1=O [Compound 40, N-(cyclopropylmethyl)-5-(4-((7-ethyl-6-oxo-5,6-dihydro-1,5-naphthyridin-3-yl)methyl)piperazin-1-yl)picolinamide]	99.3
